Target: StAhpC (Salmonella typhimurium AhpC; alkyl hydroperoxide reductase C component) (Salmonella enterica, UniProt P0A251)
Test: stopped-flow Trp fluorescence, double-exponential fit
Format: biochemical
Settings: reduced enzyme, no reductase; pH 7.0, 25 °C; peroxidatic Cys46

StAhpC (Salmonella typhimurium AhpC; alkyl hydroperoxide reductase C component), sequence (P0A251 2-187): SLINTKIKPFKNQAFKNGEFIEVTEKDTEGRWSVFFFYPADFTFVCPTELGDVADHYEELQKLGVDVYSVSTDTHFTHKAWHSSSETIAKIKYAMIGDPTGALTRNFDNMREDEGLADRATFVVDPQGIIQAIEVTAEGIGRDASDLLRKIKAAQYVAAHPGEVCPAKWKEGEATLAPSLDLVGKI

Structure (SMILES) | slope of kobs vs [ROOH], first phase
CC(C)(OO)c1ccccc1 [cumene hydroperoxide] | black those for cumene hydroperoxide
CCOO [ethyl hydroperoxide] | red those for ethyl hydroperoxide

— publication PMC4489686 (Biochemistry, 2015)
